Each block holds one molecule with its values, some of them ahead of it.
Tests used:
onychomycosis = settings: cited from earlier work; for side effects: onychomycosis treatment
[1] = diffusion cell test (Franz Diffusion Cell, spectrophotometry) of blue dye through nail with ultrasound; assay type: in vitro ADME, pig; settings: 5 min sonication, 60 min total, n=6
Procedure: A second set of experiments was conducted utilizing a diffusion cell system 500, as set forth in FIG. 5 (hereinafter, the “diffusion cell test”). As described more fully below, a diffusion cell 502 having a receiving compartment 504 containing a stir bar 506 were positioned at the bottom of the system 500. A sampling port 508 projected from a side of the receiving compartment 504 to collect liquids contained therein. A nail adapter 510 fitted with a nail 512 was positioned above the diffusion cell 502. A lid adapter 514 was positioned above the nail 512. The lid adapter 514 contained a donor compartment 516, which held the blue dye, as well as a thermocouple 518 and a transducer 520. The parameters of the diffusion cell test were the same as set forth above with respect to Example 1, except in this example, spectrophotometry and a Franz Diffusion Cell were used to measure how much of the blue dye compound permeated all the way through the nail from a donor compartment (filled with the dye) to a receiver compartment, using dilution at different ultrasound parameters.
The diffusion cell (commercially available from PermeGear, Inc., Hellertown, Pa., USA) was fit with a custom-made nail adapter to avoid leakage of dye around the nail and a lid adapter so that 50 mL of dye and the transducer could easily fit above the nail adapter, as illustrated in FIG. 5. The nail adapter was made from plastic that screws together tightly and secures to the diffusion cell using small metal clamps. The lid adapter was made from a plastic beaker and secured onto the top of the nail adapter using epoxy. During the experimentation, the receiver compartment of the diffusion cell was filled with saline solution and a magnetic stirring bar which was spun at 450 RPM to ensure the compartment was fully mixed. The entire diffusion cell was placed in a water bath at 37° C. The donor compartment was then filled with 50 mL of the previously-described blue dye. Before being placed in the donor compartment, the blue dye was maintained at room temperature for at least 20 minutes. The transducer was placed 85 mm from the nail (as opposed to 45 mm from the nail in the luminosity experiment). The nail was then sonicated for five (5) minutes.
After sonication, the diffusion cell experiment continued for another 55 minutes to allow the dye to travel through the entirety of the nail. The Control nails were not treated with any ultrasound and were exposed to the dye solution for 60 minutes. […]
After the completion of the experiment, 2 mL of solution was collected from the receiving compartment of the diffusion cell and its absorption was measured with the spectrophotometer (commercially available as UVmini-1240 from Shimadzu Scientific Instruments of Columbia, Md., USA) using saline as a base. […]

Structure (SMILES): C=C1CCN([C@H](C)[C@](O)(Cn2cncn2)c2ccc(F)cc2F)CC1 [Efinaconazole]
cure rate compared with Ciclopirox (onychomycosis; topical, applied for up to ten (10) months): slightly better cure rate

Structure (SMILES): CN(C/C=C/C#CC(C)(C)C)Cc1cccc2ccccc12 [Terbinafine]
side effects (onychomycosis): elevated levels of liver enzymes and hepatitis
overall failure rate (onychomycosis; orally prescribed): greater than 30%
time to work (onychomycosis; orally prescribed): > 6 months

increase in nail permeability vs Control ([1]; 1 MHz): 70.3%
increase in nail permeability vs Control ([1]; 400 kHz): 26.7%
increase in nail permeability vs Control ([1]; 600 kHz): 19.5%
increase in nail permeability vs Control ([1]; 800 kHz): 44.5%
Structure (SMILES): CCN(Cc1cccc(S(=O)(=O)[O-])c1)c1ccc(C(=C2C=CC(=[N+](CC)Cc3cccc(S(=O)(=O)[O-])c3)C=C2)c2ccccc2S(=O)(=O)[O-])cc1.[Na+].[Na+] [blue dye, FD&C Blue No. 1—Brilliant Blue FCF, E133]

Structure (SMILES): Cc1cc(C2CCCCC2)n(O)c(=O)c1 [ciclopirox]
cure rate (onychomycosis; nail polish form, after six (6) months of daily application): 36%
side effects (onychomycosis): only non-serious, infrequently reported side effects

— US20180092840A1, “ULTRASOUND-ENHANCED DRUG DELIVERY FOR TREATMENT OF ONYCHOMYCOSIS” (The George Washington University, priority 2016, published 2018)
